Numbered stars: 1 amine (or outer) side, 2 acyl side, 3 side chain; on linkers, the order of the positions; unused ones are H or OH. Bridge positions count the residues as written; N and C are the ends. Square brackets hold non-standard residues; d marks the D form. Peptide text beside a SMILES is read from it. * marks the point of attachment. X1 = CC[C@H](C)[C@@H](N[*:1])[C@@H](O)CC(=O)O[C@H](C(=O)[C@H](C)C(=O)[*:2])C(C)C; NMeY = CN[C@@H](Cc1ccc(O)cc1)C(=O)O; dNMeL = CN[C@H](CC(C)C)C(=O)O; Pyruvoyl = CC(=O)C(=O)*
Legend:
Format in all cases: cell-based
[1] = test system: tumor cells in the reconstituted tumor microenvironment; assay: growth of tumor cells in the reconstituted tumor microenvironment; settings: tumor cells established within the reconstituted tumor microenvironment
Experimental: The three cell system in Examples 1 and 2 is prepared and used to test standard chemotherapeutic agents for activity against cancer cell lines, such as the breast cancer cell lines MDAMB231 and MDAMB435 representing basal subtype and MCF7 and SKBR3 representing luminal subtype of breast cancer. Reconstitution is carried out in 96 well plates by co-culturing a fixed number of tumor cells and carcinoma-associated fibroblast-like cells plus TAMs either alone or admixed with differing amounts of cells representing cell types in tumor milieu. Tumor growth is monitored at these sites in accordance with the foregoing. As the tumor cells express luciferase, tumor growth is monitored even at early time points by bioluminescence imaging following injection of D-luciferin on a Kodak MM2000 Imager. Again, all the tumor cell lines tested in culture are tested in this assay.
The reconstituted system is used to identify synergistic combinations using a panel of standard chemotherapeutic agents and Jak/STAT3 inhibitors. The Chou Talalay combination index analysis is used and the data analyzed using Calcusyn software (Biosoft ver 3). […] Growth of tumors is monitored by bioluminescence imaging using a KODAK […] Imaging station as described earlier. […]

[2] = test system: FSP positive tumor stroma; assay: FSP positive tumor stroma after treatment; settings: fibroblast surface protein (FSP) as marker for tumor stroma
[3] = test system: tumor cells; assay: tumor cell demise following treatment; settings: following dehydrodidemnin B treatment
From the text: Accordingly, the instant invention is useful in drug screening assays for known and novel therapeutics targeting either the tumor cell or components of the tumor cell environment.

[4] = test system: Jak/Stat3 signaling; assay: Jak/Stat3 signaling in tumor cells following treatment; settings: following dehydrodidemnin B treatment

## CC[C@H](C)[C@H]1NC(=O)[C@@H](NC(=O)[C@@H](CC(C)C)N(C)C(=O)[C@@H]2CCCN2C(=O)C(C)=O)[C@@H](C)OC(=O)[C@H](Cc2ccc(OC)cc2)N(C)C(=O)[C@@H]2CCCN2C(=O)[C@H](CC(C)C)NC(=O)[C@@H](C)C(=O)[C@H](C(C)C)OC(=O)C[C@@H]1O [dehydrodidemnin B] (Pyruvoyl-P[dNMeL]T[X1]LP[NMeY](Me); ester 3-C)
[1]
  growth of tumor cells: can be inhibited
[1]; listed as Dehydrodidemnin B
  growth of tumor cells: inhibited
[2]
  FSP positive tumor stroma: decreased FSP positive tumor stroma
[3]
  fate of tumor cells after inhibition of Jak/Stat3 signaling: led to the demise of tumor cells
[4]
  Jak/Stat3 signaling in tumor cells: inhibition of Jak/Stat3 signaling
